Measurements from patent US20200030269A1, “ANIMAL FEED COMPOSITIONS OF ABSCISIC ACID” (Valent BioSciences LLC, priority 2010, published 2020).
“And” between values parts separate entries of the source, which are not always exact repeats. Equal entries are not always repeated.

Legend:
Type in all cases: in vivo
Male Cobb 500 chickens [1] = assay: Example 1 broiler feeding study: cumulative bird mortality after 42 days
Procedure: (§1) Male Cobb 500 chickens were fed different levels of S-ABA supplemented into starter, grower, and finisher feed diets for their entire 42 day commercial life cycle. On day 43, samples of chickens (sometimes referred to as “birds”) from each treatment were processed.
(§2) The starter, grower, and finisher basal diets represented standard commercial broiler diets. The starter and grower diets contained Salinomycin (a coccidiostat) at 40 grams/ton. The basal diets and final treatment diets were prepared using a 500 or 4,000 pound capacity vertical mixer or a 14,000 pound capacity horizontal mixer. After correcting for percent purity of S-ABA in the S-ABA dry powder, S-ABA was added to the basal diets at concentrations of 5, 50, or 500 ppm (4.6, 46, or 455 grams of S-ABA/ton). Control treatments included (1) commercial diet only and (2) commercial diet supplemented with antibiotics (bacitracin methylene disalicylate (BMD), and STAFAC® virginiamycin (hereinafter “Stafac”). STAFAC is a registered trademark of Phibro Animal Health Corporation). All feed diets were pelleted at ˜65° C. or below.
(§3) A 90-pen test facility was divided into 10 blocks containing 9 pens per block. Treatments were assigned to the pens using a complete randomized block design. Birds were assigned to the pens randomly. Specific treatment groups were as follows:
(§4) Starting on study day 0, any bird found dead or needing to be removed and sacrificed was weighed and necropsied. The probable cause of death and necropsy findings were recorded.

Male Cobb 500 chickens [2] = assay: Example 1 broiler feeding study: bird weights and feed conversion ratios; conditions: for Adjusted Feed/Gain Ratio, mean / Bird Weight, mean / Feed/Gain Ratio, mean: 5 ppm S-ABA in feed, dirty litter
Procedure: as §1, §2, §3
Feed was provided ad libitum throughout the study via one handing, ˜17-inch diameter tube feeder per pen. Chick feeder trays were placed in each pen for approximately the first 4 days. Feed added and removed from pens was weighed and recorded from day 0 to day 42. Diet changes were conducted at the same time for all pens. The feeding period for each diet was as shown below:
Birds were weighed by pen at 0, 7, 14, 21, 28, 35, and 42 days of age. The feed remaining in each pen was weighed and recorded on study day 0, 7, 14, 21, 28, 35, and 42 days of age. The feed intake during days 0-7, 0-14, 0-21, 0-28, 0-35, and 0-42 was calculated.
Performance data was summarized by average weight per bird at each body weights measurement period. The average feed conversion was calculated for each respective body weight period using the total feed consumption in a pen divided by the total weight of surviving birds (i.e. days 0-7, 0-14, 0-21, etc.). Adjusted feed conversion was calculated using the total feed consumption in a pen divided by the total weight of surviving birds and weight of birds that died or were removed from that pen.

[3] = system: Male and female Cobb 500 chickens; assay: Example 2 broiler feeding study: cumulative bird mortality after 42 days
Procedure: Male and female Cobb 500 chickens were fed different levels of S-ABA supplemented into starter, grower, and finisher feed diets for their entire 42 days commercial life cycle.
The starter, grower, and finisher basal diets represented standard commercial broiler diets. The starter and grower diets contained Salinomycin (a coccidiostat) at 40 grams/ton. The basal diets and final treatment diets were prepared using a 500 or 4,000 pound capacity vertical mixer or a 14,000 pound capacity horizontal mixer. After correcting for percent purity of S-ABA in the S-ABA dry powder, S-ABA was added to the basal diets at concentrations of 2.5, 5.0, or 7.5 ppm (2.3, 4.6, or 6.8 grams of S-ABA/ton). Control treatments included (1) commercial diet only and (2) commercial diet supplemented with antibiotics (bacitracin methylene disalicylate and Stafac). All feed diets were pelleted at ˜65° C. or below.
A 108-pen test facility was divided into 18 blocks containing 6 pens per block. Treatments were assigned to the pens using a complete randomized block design. Birds were assigned to the pens randomly. Specific treatment groups were as follows:
as §4

Male Cobb 500 chickens [4] = assay: Example 1 broiler feeding study: digestive tract weights at processing on day 43; conditions: for Digestive Tract Weights, Mean Weight: dirty litter, day 43
Procedure: as §1, §2, §3
Four blocks (9 pens/block) were selected at random from each treatment. On day 42 all birds in the selected blocks were individually wing banded with a unique number. Prior to processing the birds were fasted for approximately 12 hours. Immediately after processing on day 43, digestive tract weights and Bursa of Fabricius organ weights were measured.

[5] = commercial feed diet plus 5 ppm S-ABA, dirty litter, 42 days
[6] = 5 ppm S-ABA in commercial feed diet versus control 1

Structure (SMILES): CC1=CC(=O)CC(C)(C)[C@@]1(O)/C=C/C(C)=C\C(=O)O [S-ABA, (S)-(+)-abscisic acid]
- bird mortality compared to the control treatments (Male Cobb 500 chickens [1]; 5 ppm S-ABA in commercial feed diets, versus control 1 and BMD/Stafac control 2): significantly (P=0.05) lower bird mortality
- Cumulative Bird Mortality After 42 Days: Died (Male Cobb 500 chickens [1]; [5]): 0
- Cumulative Bird Mortality After 42 Days: Lived (Male Cobb 500 chickens [1]; [5]): 200
- bird growth (weights) compared to the commercial feed diet (control 1) (Male Cobb 500 chickens [2]; 5 ppm S-ABA in commercial feed): increased bird growth (weights)
- lowering of adjusted feed conversion ratios (corrected for number of surviving birds) (Male Cobb 500 chickens [2]; [6]): 1-2 points
- reduction of feed conversion ratios (Male Cobb 500 chickens [2]; [6]): 1-4 points
- Adjusted Feed/Gain Ratio, mean (Male Cobb 500 chickens [2]; Day 7): 1.4093
- Bird Weight, mean (Male Cobb 500 chickens [2]; Day 7): 0.1445 kg
- Feed/Gain Ratio, mean (Male Cobb 500 chickens [2]; Day 7): 1.4093
- Adjusted Feed/Gain Ratio, mean (Male Cobb 500 chickens [2]; Day 14): 1.2854
- Bird Weight, mean (Male Cobb 500 chickens [2]; Day 14): 0.3873 kg
- Feed/Gain Ratio, mean (Male Cobb 500 chickens [2]; Day 14): 1.3400
- Adjusted Feed/Gain Ratio, mean (Male Cobb 500 chickens [2]; Day 21): 1.3842
- Bird Weight, mean (Male Cobb 500 chickens [2]; Day 21): 0.7899 kg
- Feed/Gain Ratio, mean (Male Cobb 500 chickens [2]; Day 21): 1.4137
- Adjusted Feed/Gain Ratio, mean (Male Cobb 500 chickens [2]; Day 28): 1.4517
- Bird Weight, mean (Male Cobb 500 chickens [2]; Day 28): 1.4236 kg
- Feed/Gain Ratio, mean (Male Cobb 500 chickens [2]; Day 28): 1.4584
- Adjusted Feed/Gain Ratio, mean (Male Cobb 500 chickens [2]; Day 35): 1.5610
- Bird Weight, mean (Male Cobb 500 chickens [2]; Day 35): 2.0919 kg
- Feed/Gain Ratio, mean (Male Cobb 500 chickens [2]; Day 35): 1.5731
- Adjusted Feed/Gain Ratio, mean (Male Cobb 500 chickens [2]; Day 42): 1.6691
- Bird Weight, mean (Male Cobb 500 chickens [2]; Day 42): 2.7565 kg
- Feed/Gain Ratio, mean (Male Cobb 500 chickens [2]; Day 42): 1.6861
- survival rates compared to the commercial feed diet containing bacitracin methylene disalicylate and Stafac ([3]; ABA added to commercial feed diets, 42 days): higher survival rates
- Cumulative Bird Mortality After 42 Days: Mortality ([3]; S-ABA 2.5 ppm in feed, Female, dirty litter): 2.4%
- Cumulative Bird Mortality After 42 Days: Mortality ([3]; S-ABA 2.5 ppm in feed, Male, dirty litter): 4.1%
- Cumulative Bird Mortality After 42 Days: Mortality ([3]; S-ABA 5.0 ppm in feed, Female, dirty litter (two treatment groups)): 0.4% and 1.9%
- Cumulative Bird Mortality After 42 Days: Mortality ([3]; S-ABA 5.0 ppm in feed, Male, dirty litter (two treatment groups)): 2.9% and 3.5%
- Cumulative Bird Mortality After 42 Days: Mortality ([3]; S-ABA 7.5 ppm in feed, Female, dirty litter): 2.2%
- Cumulative Bird Mortality After 42 Days: Mortality ([3]; S-ABA 7.5 ppm in feed, Male, dirty litter): 3.8%
- weight of digestive tracts compared to the commercial feed diets (control 1 and control 2) (Male Cobb 500 chickens [4]; S-ABA in the feed diet): increases the weight of digestive tracts
- Digestive Tract Weights, Mean Weight (Male Cobb 500 chickens [4]; commercial feed diet plus 5 ppm S-ABA): 86.7 Grams
- Digestive Tract Weights, Mean Weight (Male Cobb 500 chickens [4]; commercial feed diet plus 50 ppm S-ABA): 86.6 Grams
- Digestive Tract Weights, Mean Weight (Male Cobb 500 chickens [4]; commercial feed diet plus 500 ppm S-ABA): 88.4 Grams
